Earlier results as cited in US7858598B2, “Reagents for detection of hypochlorous acid” (Morningside Ventures Limited & Versitech Limited, priority 2007, dated 2010).

## OCl [hypochlorous acid]
  pKa: 7.6
